From ChEMBL document CHEMBL1124008, “Synthesis and antifolate activity of 5-methyl-5,10-dideaza analogues of aminopterin and folic acid and an alternative synthesis of 5,10-dideazatetrahydrofolic acid, a potent inhibitor of glycinamide ribonucleotide formyltransferase” (J Med Chem, 1988)

Tests used:
Dihydrofolate reductase [1] = target: T1, Dihydrofolate reductase (Mus musculus, UniProt P00375); test: Evaluated for inhibition of dihydrofolate reductase (DHFR) isolated from L1210 cells; assay type: cell-based
T1 sequence (P00375 whole entry): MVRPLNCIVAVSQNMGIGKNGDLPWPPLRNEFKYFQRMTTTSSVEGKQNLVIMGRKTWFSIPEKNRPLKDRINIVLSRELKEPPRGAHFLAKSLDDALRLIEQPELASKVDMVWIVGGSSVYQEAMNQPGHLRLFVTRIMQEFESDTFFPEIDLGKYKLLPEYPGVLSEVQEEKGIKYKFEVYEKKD

Dihydrofolate reductase [2] = target: Dihydrofolate reductase (Lactobacillus casei, UniProt P00381); test: Evaluated for inhibition of dihydrofolate reductase (DHFR) from Lactobacillus casei; parameters: species or system Lacticaseibacillus casei
[3] = target: T2, Trifunctional purine biosynthetic protein adenosine-3 (Mus musculus, UniProt Q64737); test: Inhibition of GAR transformylase from mammalian L1210 cells; assay type: cell-based
T2 sequence (Q64737 whole entry): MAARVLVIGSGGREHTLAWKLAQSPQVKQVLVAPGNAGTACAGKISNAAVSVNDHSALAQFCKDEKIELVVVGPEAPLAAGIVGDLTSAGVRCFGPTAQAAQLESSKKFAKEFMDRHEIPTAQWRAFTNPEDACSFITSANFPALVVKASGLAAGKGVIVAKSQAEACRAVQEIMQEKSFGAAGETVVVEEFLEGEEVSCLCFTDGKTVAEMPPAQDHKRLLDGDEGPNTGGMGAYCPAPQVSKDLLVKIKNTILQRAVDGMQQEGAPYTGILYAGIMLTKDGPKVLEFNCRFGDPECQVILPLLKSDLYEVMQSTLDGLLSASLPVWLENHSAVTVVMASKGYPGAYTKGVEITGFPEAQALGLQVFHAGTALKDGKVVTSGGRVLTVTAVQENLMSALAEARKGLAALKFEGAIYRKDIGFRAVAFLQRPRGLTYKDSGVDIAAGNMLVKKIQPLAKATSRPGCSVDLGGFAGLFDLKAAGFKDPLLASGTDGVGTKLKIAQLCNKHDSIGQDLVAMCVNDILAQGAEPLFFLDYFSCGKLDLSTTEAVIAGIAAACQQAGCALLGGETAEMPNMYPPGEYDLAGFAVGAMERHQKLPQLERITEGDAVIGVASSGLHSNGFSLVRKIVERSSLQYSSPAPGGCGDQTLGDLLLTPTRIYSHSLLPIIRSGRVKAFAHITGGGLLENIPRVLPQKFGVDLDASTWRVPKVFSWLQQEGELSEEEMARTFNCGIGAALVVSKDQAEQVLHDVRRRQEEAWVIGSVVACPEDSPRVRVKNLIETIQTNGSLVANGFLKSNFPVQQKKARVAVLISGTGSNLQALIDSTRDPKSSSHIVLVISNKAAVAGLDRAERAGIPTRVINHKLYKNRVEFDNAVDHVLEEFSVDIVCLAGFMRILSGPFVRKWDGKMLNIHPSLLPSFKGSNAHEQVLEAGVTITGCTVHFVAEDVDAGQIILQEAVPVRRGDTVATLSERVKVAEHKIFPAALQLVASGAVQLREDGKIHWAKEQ

Thymidylate synthase = target: T3, Thymidylate synthase (Lactobacillus casei, UniProt P00469); test: Evaluated for inhibition of thymidylate synthase (TS) from Lactobacillus casei; parameters: species or system Lacticaseibacillus casei
T3 sequence (P00469 whole entry): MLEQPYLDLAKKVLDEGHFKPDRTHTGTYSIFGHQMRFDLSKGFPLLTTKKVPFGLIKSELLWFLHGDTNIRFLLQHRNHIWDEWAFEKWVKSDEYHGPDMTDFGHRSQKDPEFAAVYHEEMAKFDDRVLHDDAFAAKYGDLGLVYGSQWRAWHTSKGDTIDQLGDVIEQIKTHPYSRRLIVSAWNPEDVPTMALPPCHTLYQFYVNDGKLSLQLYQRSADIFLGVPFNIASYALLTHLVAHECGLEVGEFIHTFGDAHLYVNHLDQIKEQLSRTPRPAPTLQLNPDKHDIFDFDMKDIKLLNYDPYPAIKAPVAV

[4] = target: Trifunctional purine biosynthetic protein adenosine-3 (Homo sapiens) (UniProt P22102); test: Inhibition of GAR transformylase from mammalian Manca
L1210 [5] = test: Evaluated for cell growth inhibition of L1210 cells in cultures; assay type: functional, cell-based; conditions: Mus musculus
L1210 [6] = test: Influx characteristics toward L1210 cells was evaluated; assay type: functional, cell-based; conditions: Mus musculus
L1210 [7] = test: Efflux characteristics in the L1210 cells was evaluated; assay type: functional, Mus musculus

Sequence of Dihydrofolate reductase (Lactobacillus casei, UniProt P00381) (P00381 whole entry): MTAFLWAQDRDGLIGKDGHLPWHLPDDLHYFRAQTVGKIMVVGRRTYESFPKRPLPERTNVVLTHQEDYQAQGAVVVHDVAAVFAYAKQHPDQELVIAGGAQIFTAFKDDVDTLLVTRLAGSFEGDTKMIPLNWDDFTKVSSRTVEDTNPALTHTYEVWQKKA
Sequence of Trifunctional purine biosynthetic protein adenosine-3 (Homo sapiens) (P22102 whole entry, looked up): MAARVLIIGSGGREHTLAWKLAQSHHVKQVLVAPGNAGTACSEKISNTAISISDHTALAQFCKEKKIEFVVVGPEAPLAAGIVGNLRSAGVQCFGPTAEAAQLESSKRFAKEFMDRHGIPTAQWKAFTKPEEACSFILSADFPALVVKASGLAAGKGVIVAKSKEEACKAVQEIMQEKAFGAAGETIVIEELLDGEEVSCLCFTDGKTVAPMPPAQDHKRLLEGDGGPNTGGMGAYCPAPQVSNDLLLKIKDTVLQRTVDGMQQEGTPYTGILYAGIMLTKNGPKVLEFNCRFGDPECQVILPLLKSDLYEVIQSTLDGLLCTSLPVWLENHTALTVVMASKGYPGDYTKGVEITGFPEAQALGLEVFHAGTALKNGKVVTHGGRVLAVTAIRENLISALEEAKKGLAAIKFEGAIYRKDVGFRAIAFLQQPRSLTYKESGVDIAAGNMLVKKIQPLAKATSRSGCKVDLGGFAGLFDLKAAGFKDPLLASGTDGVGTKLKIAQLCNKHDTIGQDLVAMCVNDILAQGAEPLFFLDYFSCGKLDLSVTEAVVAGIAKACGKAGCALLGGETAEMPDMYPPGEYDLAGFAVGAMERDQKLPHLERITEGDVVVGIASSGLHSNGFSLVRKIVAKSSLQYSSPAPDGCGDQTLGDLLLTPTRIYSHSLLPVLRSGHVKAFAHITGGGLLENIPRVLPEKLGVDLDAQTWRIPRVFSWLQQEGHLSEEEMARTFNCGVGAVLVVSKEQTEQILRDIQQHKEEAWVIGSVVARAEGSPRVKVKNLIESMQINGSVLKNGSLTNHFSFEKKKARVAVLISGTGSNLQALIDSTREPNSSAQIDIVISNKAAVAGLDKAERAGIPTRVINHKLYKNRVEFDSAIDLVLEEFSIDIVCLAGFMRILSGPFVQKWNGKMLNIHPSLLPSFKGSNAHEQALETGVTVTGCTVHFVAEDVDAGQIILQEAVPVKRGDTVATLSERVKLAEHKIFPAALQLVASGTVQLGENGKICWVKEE

| IC50 (L1210 [5]) [nM] | Structure (SMILES) | Ki (Dihydrofolate reductase [1]) [nM] | IC50 (Dihydrofolate reductase [2]) [nM] | IC50 [3] [nM] | IC50 (Thymidylate synthase) [nM] | IC50 [4] [nM] | Km (L1210 [6]) [µM] | k (L1210 [7]) [min⁻¹] |
| --- | --- | --- | --- | --- | --- | --- | --- | --- |
|  | Cc1c(CCc2ccc(C(=O)NC(CCC(=O)O)C(=O)O)cc2)cnc2nc(N)[nH]c(=O)c12 (stereo not given) | > 1 | 16000 | > 20000 | 44000 | > 20000 |  |  |
| 36400 | Cc1c(CCc2ccc(C(=O)NC(CCC(=O)O)C(=O)O)cc2)cnc2nc(N)nc(O)c12 (stereo not given) |  |  |  |  |  | 18.8 |  |
| 23.2 | Cc1c(CCc2ccc(C(=O)NC(CCC(=O)O)C(=O)O)cc2)cnc2nc(N)nc(N)c12 (stereo not given) | 0.0283 | 23 |  | 2900 |  | 1.25 | 0.5 |
| 2.1 | CN(Cc1cnc2nc(N)nc(N)c2n1)c1ccc(C(=O)N[C@@H](CCC(=O)O)C(=O)O)cc1 [METHOTREXATE] |  |  |  |  |  | 3.95 | 0.22 |

| Structure (SMILES) | IC50 (L1210 [5]) [nM] | Ki (Dihydrofolate reductase [1]) [nM] | IC50 (Dihydrofolate reductase [2]) [nM] | IC50 [3] [nM] | IC50 (Thymidylate synthase) [nM] | IC50 [4] [nM] | Km (L1210 [6]) [µM] | k (L1210 [7]) [min⁻¹] |
| --- | --- | --- | --- | --- | --- | --- | --- | --- |
| CCC1c2c(O)nc(N)nc2NCC1CCc1ccc(C(=O)NC(CCC(=O)O)C(=O)O)cc1 (racemic) | 57.2 | > 1 | 19000 | 500 | > 100000 | 500 | 2.48 |  |
| CC1c2c(O)nc(N)nc2NCC1CCc1ccc(C(=O)NC(CCC(=O)O)C(=O)O)cc1 (racemic) | 490 | > 1 | > 100000 | 80000 | > 100000 | 14000 | 1.62 |  |
